In article PMC3680490, “Fragment-Based Screening Maps Inhibitor Interactions in the ATP-Binding Site of Checkpoint Kinase 2” (PLoS ONE, 2013):
Marks after values point to notes of the source that are not given here.

Tests used:
[1] = target: T1, kinase domain of CHK2 (CHK2-KD, residues 210-531) (Homo sapiens, UniProt O96017); assay: Thermal shift assay (SYPRO Orange); format: binding; conditions: for T m, ligand (standard deviations from the plate mean): highest value of two independent measurements, 2 mM fragment; for ΔT m, ligand: mean of two independent measurements, 2 mM ligand
T1 construct: The kinase domain of CHK2 (residues 210-531) was produced as a GST-fusion protein; GST (cleaved yes); made in house
Protocol: In parallel, we screened the fragment library against the kinase domain of CHK2 (CHK2-KD, residues 210-531) using a thermal shift assay. In a thermal shift assay, the folding stability of a target protein is measured by its thermally-induced unfolding. An increase in melting temperature of a protein in the presence of a ligand is used to identify ligand binding, assuming that the bound ligand stabilizes the target protein and therefore increases the energy required for its thermal unfolding. The thermal unfolding of CHK2-KD was measured using the fluorescent dye SYPRO® Orange™, which is sensitive to its environment and preferentially binds to hydrophobic patches that are typically exposed upon protein unfolding. To identify the hit threshold, we calculated the standard deviation (SD) of the melting temperature of CHK2 in the presence of a ligand (T m, ligand) for each plate. Ligands with a T m, ligand value of more than 2 standard deviations above the mean T m, ligand for each plate in at least one of the duplicates were defined as hits. We calculated the mean change in melting temperature from duplicate measurements (ΔT m, ligand) by subtracting the mean melting temperature of six reference samples of protein without ligand (T m, 0) from the melting temperature of CHK2 samples with ligand (T m, ligand).
Thermal shift screening of the ICR fragment library against a truncated version of CHK2 comprising only the kinase domain (CHK2-KD), was carried out using an Opticon 2 RT-PCR machine (Bio-Rad, Hemel Hempstead, UK). […] All experiments were performed in white 96-well SuperPlate skirted PCR-plates (ABgene®, Thermo Scientific, Loughborough, UK). Fragments were screened at a final concentration of 2 mM in assay buffer containing a final concentration of 2% (v/v) DMSO and all measurements were carried out in duplicate. The well contents were mixed by centrifugation for 2 min at 500 g and pre-equilibrated for 5 min at 20°C before starting the thermal shift experiment. All melting curves were generated from 20°C to 95°C, raising the temperature in steps of 0.5°C and keeping it constant for 15 seconds at each step. […] MgATP (2 mM ATP and 5 mM MgCl2) in the presence of 2% (v/v) DMSO was used as a positive control. For each experiment, the data range of the protein unfolding transition was established using the Excel-based worksheet ‘DSF Analysis’, made available by the Structural Genomics Consortium (SGC), Oxford, and subsequently fitted with a Boltzmann sigmoidal equation using GraphPad Prism version 5 (GraphPad Software, San Diego, California, USA, www.graphpad.com), from which the melting temperature T m was calculated. The change in melting temperature caused by ligand binding, expressed as the mean from duplicate measurements (ΔT m, ligand), was calculated by subtracting T m, 0 from each melting temperature obtained in the presence of a ligand (T m, ligand) using the DSF-analysis spreadsheet. The hit threshold was determined by calculating the standard deviation (SD) of the melting temperatures of CHK2 in the presence of ligand (T m, ligand) for every plate. Ligands with a T m, ligand>mean(T m, ligand) +2SD in at least one of the duplicates were defined as hits.

[2] = target: T2, full-length CHK2 (Homo sapiens, UniProt O96017); assay: High-concentration AlphaScreen kinase assay (phosphorylation of CDC25C peptide); format: biochemical; conditions: for inhibition at 300 µM: primary screening data, compound concentration 300 µM, mean ± SD of triplicate, read-out: AlphaScreen™ (percentage inhibition)
T2 construct: full-length human CHK2 (residues 1 to 543); 6xHis (N); made in house; host or cells: Sf9 insect cells (baculovirus)
Protocol: To identify fragments binding in the ATP-binding-site of CHK2, we screened the in-house fragment library consisting of 1869 compounds, as described above, against full-length CHK2 using an AlphaScreen™ kinase assay, in which inhibition of full-length CHK2 was measured by a reduction in the phosphorylation of a CDC25C peptide (Figure S1). Because of the generally weak affinity of fragments, the assay was carried out at a high compound concentration (300 µM). […] All 45 hits were confirmed by re-assaying them under the same conditions. To eliminate potential false positives due to aggregation of poorly soluble fragments, or owing to interference with the AlphaScreen™ signal, the hits were assayed by including 0.01% (v/v) Triton™ X-100 in the assay buffer, and in the presence of phosphorylated rather than unphosphorylated peptide substrate, respectively. The average robust Z’ for the confirmation assays was 0.9. […] The final confirmed hit rate for the assay was 1.1%.
Full-length CHK2 was screened against the ICR fragment library consisting of 1869 fragments using a biochemical assay based on AlphaScreen™ technology in which the CHK2 kinase activity was measured by monitoring the phosphorylation of a CDC25C peptide using a phospho-specific antibody. Assay conditions were similar to those described by Hilton et al., but all fragments were screened at a final concentration of 300 µM. Amendments to the protocol included a change in the full-length CHK2 concentration to 2 nM and a final concentration of the antibody against phosphorylated CDC25C of 0.5 nM. For a positive control, 4-(2-amino-5-(thiophen-3-yl)pyridin-3-yl)benzoic acid (27, Figure S4, referred to as compound 19 in Hilton et al.) was added at a final concentration of 10 µM. The phosphorylation reaction was performed for 80 min at room temperature and stopped by the addition of 5 µL of the previously described detection buffer. Plates were incubated overnight at room temperature and in the dark, and the assay endpoint was measured using an Envision™ 2103 multilabel reader (Perkin Elmer Life Sciences, Seer Green, UK). Primary screening data were analyzed in ActivityBase (IDBS, Guildford, UK). Percentage inhibition was calculated as follows: 100*(1–(S–B)/(T–B)), where S represented the counts for each compound well, B the counts in the wells containing no enzyme, and T the counts in the total activity wells. The plates were assayed in triplicate and fragments with a percentage inhibition of 50% or more in at least two out of the three measurements were defined as initial hits. Initial hits were re-assayed under the same conditions in triplicate for reconfirmation. Furthermore, all hits were tested for interference by repeating the assay in the presence of phosphorylated rather than unphosphorylated peptide substrate, and for aggregation by including 0.01% (v/v) Triton™ X-100 in the assay buffer.

[3] = target: T2, full-length CHK2; assay: Microfluidic mobility shift assay for IC50 determination; format: biochemical; conditions: for Ligand Efficiency: calculated using mean mobility shift IC50; for IC50: mean ± SD of triplicate
Protocol: In addition, percentage inhibition and IC50 values for all follow-up compounds were determined in triplicate using this assay. […] An ECHO® 550 acoustic dispenser (Labcyte Inc™, Dublin, Ireland) was used to generate duplicate eight-point dilution curves directly into 384-well low-volume polystyrene assay plates (Corning Life Sciences, New York, USA). For each compound, a 10 mM stock concentration in 100% DMSO was used.
The plate was sealed and centrifuged for 1 min at 1000 rpm before incubation for 1 h at room temperature.
IC50 values were calculated from a four-parameter logistics fit of percentage inhibition versus concentration using the Studies package (from Dotmatics, Bishops Stortford, UK).

[4] = target: T3, CHK1 (Homo sapiens, UniProt O14757); assay: CHK1 mobility shift assay; format: biochemical; conditions: inactive
T3 sequence (O14757 1-476): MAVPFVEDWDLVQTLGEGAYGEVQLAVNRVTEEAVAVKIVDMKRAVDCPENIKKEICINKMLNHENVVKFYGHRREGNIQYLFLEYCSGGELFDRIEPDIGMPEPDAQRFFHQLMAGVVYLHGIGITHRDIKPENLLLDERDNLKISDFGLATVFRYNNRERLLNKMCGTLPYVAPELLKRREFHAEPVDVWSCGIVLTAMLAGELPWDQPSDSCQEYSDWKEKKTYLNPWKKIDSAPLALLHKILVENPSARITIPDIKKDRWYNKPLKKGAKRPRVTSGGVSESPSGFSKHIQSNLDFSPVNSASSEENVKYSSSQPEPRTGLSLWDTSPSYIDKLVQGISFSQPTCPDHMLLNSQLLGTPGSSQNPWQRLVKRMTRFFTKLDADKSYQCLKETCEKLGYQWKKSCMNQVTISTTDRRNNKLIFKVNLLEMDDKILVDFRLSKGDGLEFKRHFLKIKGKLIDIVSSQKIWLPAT
Excerpt: However, it is very difficult to assess the contribution to selectivity of binding in this pocket using the inhibitor 26, because its CHK2 selectivity is most likely dominated by the unusual binding of the benzamidazole scaffold to the hinge through a mediating water molecule.

[5] = system: ovarian cancer cell lines; conditions: cited from earlier work
[6] = follow-up compounds from similarity search (Table 2)

T2 sequence (O96017 whole entry, the tested form may be a part): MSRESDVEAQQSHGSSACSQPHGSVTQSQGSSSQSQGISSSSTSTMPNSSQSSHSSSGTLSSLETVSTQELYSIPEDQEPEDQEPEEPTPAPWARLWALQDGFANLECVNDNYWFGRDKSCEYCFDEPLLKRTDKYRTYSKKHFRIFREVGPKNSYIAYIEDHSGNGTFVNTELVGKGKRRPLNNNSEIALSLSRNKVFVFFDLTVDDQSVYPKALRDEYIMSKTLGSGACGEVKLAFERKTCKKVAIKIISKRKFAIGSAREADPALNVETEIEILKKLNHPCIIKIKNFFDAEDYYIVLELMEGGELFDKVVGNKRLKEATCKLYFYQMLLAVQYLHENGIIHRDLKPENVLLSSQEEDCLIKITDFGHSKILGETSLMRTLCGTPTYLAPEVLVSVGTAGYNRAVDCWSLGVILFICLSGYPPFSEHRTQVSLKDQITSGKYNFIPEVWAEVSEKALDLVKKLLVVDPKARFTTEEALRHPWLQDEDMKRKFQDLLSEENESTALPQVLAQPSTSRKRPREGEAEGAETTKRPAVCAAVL
T1 sequence (O96017 210-531): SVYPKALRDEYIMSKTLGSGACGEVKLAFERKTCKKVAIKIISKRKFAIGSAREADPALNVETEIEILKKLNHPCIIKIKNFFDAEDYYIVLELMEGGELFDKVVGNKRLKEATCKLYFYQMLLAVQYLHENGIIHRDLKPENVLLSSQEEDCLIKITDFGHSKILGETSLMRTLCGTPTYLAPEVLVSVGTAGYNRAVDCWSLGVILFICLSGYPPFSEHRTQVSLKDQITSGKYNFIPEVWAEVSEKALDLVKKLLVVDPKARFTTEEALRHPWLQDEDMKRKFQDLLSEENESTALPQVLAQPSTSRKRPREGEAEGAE

| SMILES | T m, ligand (standard deviations from the plate mean) [1] | ΔT m, ligand [1] | inhibition at 300 µM [2] | Ligand Efficiency ([3]; Table 1) | IC50 ([3]; fragment hits, 100 µM ATP) | IC50 [4] | Ligand Efficiency ([3]; Table 2) | IC50 [3, 6] | inhibition at 10 µM ([2]; concentration of 10 µM, read-out: AlphaScreen™ percentage inhibition, positive control) | Potentiation in combination with genotoxic agents [5] |
| --- | --- | --- | --- | --- | --- | --- | --- | --- | --- | --- |
| O=C(NCc1ccco1)c1ccc2nccnc2c1 [Compound 13] | 5.7 standard deviations | 5.6±0.3 °C | 76.1 ± 1.1% | 0.36 kcal mol^−1 HA^−1 | 11.7 ± 2 µM | > 200 µM | – | – | – | – |
| Cc1cc(-c2ccccc2)n[nH]1 [Compound 16] | 3.7 standard deviations | 2.6±1.7 °C | 56.1 ± 1% | – | – | – | – | – | – | – |
| COc1ccc(CNC(=O)c2ccc3nccnc3c2)cc1 [Compound 22] | – | – | – | – | – | > 200 µM | 0.34 kcal mol^−1 HA^−1 | 3.6 ± 1.2 µM | – | – |
| Nc1ncc(-c2ccsc2)cc1-c1ccc(C(=O)O)cc1 [Compound 27, 4-(2-amino-5-(thiophen-3-yl)pyridin-3-yl)benzoic acid, reference compound] | – | – | – | – | – | – | – | – | 62.7% | – |
| CC(=O)N1CCC(C(=O)Nc2ccc(C)cn2)CC1 [Compound 19] | 5.7 standard deviations | 4.0±0.6 °C | 34.7 ± 0.93% | 0.26 kcal mol^−1 HA^−1 | 228 ± 22.2 µM | – | – | – | – | – |
| c1cncc(-c2n[nH]c3ccnc(-c4cccs4)c23)c1 [Compound 21] | – | – | – | – | – | – | 0.32 kcal mol^−1 HA^−1 | 21.3 ± 2.1 µM | – | – |
| CCOC(=O)N1CCN(C(=O)Nc2ccc3nccnc3c2)CC1 [Compound 23] | – | – | – | – | – | – | 0.28 kcal mol^−1 HA^−1 | 14.2 ± 8.6 µM | – | – |
| CC(CO)NC(=N)c1c(O)nsc1Nc1ccc(Nc2ccc(Br)cc2)cc1 (stereo not shown) [VRX0466617] | – | – | – | – | – | – | – | – | – | no such effects have been observed |
| Cc1n[nH]c(N)c1-c1cccs1 [Compound 18] | 4.6 standard deviations | 3.9±1.3 °C | 60.9 ± 2.1% | 0.47 kcal mol^−1 HA^−1 | 76.8 ± 1.4 µM | – | – | – | – | – |
| Cc1ccc2ncnc(N)c2c1 [Compound 15] | 4.6 standard deviations | 5.0±0.6 °C | 72.8 ± 6.7% | 0.55 kcal mol^−1 HA^−1 | 15.9 ± 1.1 µM | – | – | – | – | – |
| C/C(=N/O)c1ccc(O)cc1O [Compound 12] | 2.9 standard deviations | 3.0 ^f °C | 58.2 ± 1.7% | 0.47 kcal mol^−1 HA^−1 | 85.6 ± 7.9 µM | – | – | – | – | – |
| c1ccc2c(c1)[nH]c1ncnn12 [Compound 11] | 5.8 standard deviations | 7.0±0.8 °C | 91.4 ± 0.4% | 0.64 kcal mol^−1 HA^−1 | 2.7 ± 0.2 µM | – | – | – | – | – |
| Nc1cc(-c2cccnc2)n[nH]1 [Compound 17] | 4.2 standard deviations | 3.7±0.9 °C | 71.5 ± 25.5% | 0.47 kcal mol^−1 HA^−1 | 76.2 ± 3.3 µM | – | – | – | – | – |
| c1coc(-c2ccnc3[nH]nc(C4CC4)c23)c1 [Compound 20] | – | – | – | – | – | – | 0.42 kcal mol^−1 HA^−1 | 7.2 ± 2.9 µM | – | – |
| CC(C)(C)NC(=O)Nc1ccc2nccnc2c1 [Compound 14] | 4.3 standard deviations | 4.5±0.02 °C | 59.5 ± 1.9% | 0.34 kcal mol^−1 HA^−1 | 36.9 ± 9 µM | – | – | – | – | – |
